In US20250171437A1 (Agios Pharmaceuticals,Inc., priority 2022, published 2025):

Molecular target: T1, human PAH with the R408W mutation (A375 R408W cells) (Homo sapiens, UniProt P00439, R408W)
T1 construct: expressed in transfected cells
T1 sequence (P00439 1-452 R408W): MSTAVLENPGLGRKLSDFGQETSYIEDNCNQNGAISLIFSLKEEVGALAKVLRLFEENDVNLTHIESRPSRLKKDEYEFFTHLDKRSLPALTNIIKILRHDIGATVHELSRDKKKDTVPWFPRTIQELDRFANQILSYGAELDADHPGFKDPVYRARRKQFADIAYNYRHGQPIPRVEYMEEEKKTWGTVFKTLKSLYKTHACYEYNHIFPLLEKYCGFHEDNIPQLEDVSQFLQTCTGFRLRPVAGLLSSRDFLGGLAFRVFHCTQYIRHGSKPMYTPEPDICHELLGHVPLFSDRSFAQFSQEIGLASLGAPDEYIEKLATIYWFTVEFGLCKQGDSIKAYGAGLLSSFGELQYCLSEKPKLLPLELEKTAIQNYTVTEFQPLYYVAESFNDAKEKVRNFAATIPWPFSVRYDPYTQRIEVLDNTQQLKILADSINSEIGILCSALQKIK
Experiment: Cell Based Phenylalanine Flux Assay
Settings: 24 hrs with compound, then 20 μM sepiapterin and 800 μM 13C9,15N-Phenylalanine for 4 hours, 13C-Tyrosine by LC-MS, average where tested multiple times
How it was run: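 A375 cells stably expressing lentiviral human PAH R408W were treated with compounds (10-point 2-fold dilutions, 0.5% DMSO, duplicate) for 24 h at 37 °C. Then 20 μM sepiapterin and 800 μM 13C9,15N-Phe were added for 4 h; media 13C-Tyr was measured by LC-MS to give AC50.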

[1] = A375 cells expressing R408W PAH

Compound | AC50 (A375 R408W cells) | AC50 [1]
O=C(c1oc(C2(O)CCC2)nc1C(F)F)N1CCc2[nH]cnc2[C@H]1c1nc2cc(F)ccc2o1 [Example 689, (S)-(4-(difluoromethyl)-2-(1-hydroxycyclobutyl)oxazol-5-yl)(4-(5-fluorobenzo[d]oxazol-2-yl)-6,7-dihydro-1H-imidazo[4,5-c]pyridin-5(4H)-yl)methanone] | ≤ 500 nM | –
O=C(c1cnn2cc(F)c(Cl)cc12)N1CCc2[nH]cnc2[C@@H]1c1nc2cc(F)ccc2o1 [Example 220, (R)-(5-chloro-6-fluoropyrazolo[1,5-a]pyridin-3-yl)(4-(5-fluorobenzo[d]oxazol-2-yl)-6,7-dihydro-1H-imidazo[4,5-c]pyridin-5(4H)-yl)methanone] | ≥ 5000 nM | –
Cc1ccc2nc([C@@H]3c4nc[nH]c4CCN3C(=O)c3oc(C(C)(C)O)nc3C(F)F)oc2c1 [Example 315, (S)-(4-(difluoromethyl)-2-(2-hydroxypropan-2-yl)oxazol-5-yl)(4-(6-methylbenzo[d]oxazol-2-yl)-6,7-dihydro-1H-imidazo[4,5-c]pyridin-5(4H)-yl)methanone] | ≤ 500 nM | –
(R)-(3-chloro-1-methyl-1H-1,2,4-triazol-5-yl)(4-(6-fluorobenzo[d]oxazol-2-yl)-6,7-dihydro-1H-imidazo[4,5-c]pyridin-5(4H)-yl)methanone [Example 344] | 1000 to 5000 nM | –
Cc1ccc(C)c2oc([C@@H]3c4nc[nH]c4CCN3C(=O)c3ocnc3C(F)F)nc12 [Example 890, (S)-(4-(difluoromethyl)oxazol-5-yl)(4-(4,7-dimethylbenzo[d]oxazol-2-yl)-6,7-dihydro-1H-imidazo[4,5-c]pyridin-5(4H)-yl)methanone] | ≤ 500 nM | –
Cn1nc(-c2ccccn2)nc1C(=O)N1CCc2[nH]cnc2C1c1nc2cccc(F)c2o1 (centres unmarked) | – | ≥ 5000 nM
O=C(c1oc(COC(F)(F)F)nc1C(F)F)N1CCc2[nH]cnc2[C@H]1c1nc2cc(F)ccc2o1 [Example 115, (S)-(4-(difluoromethyl)-2-((trifluoromethoxy)methyl)oxazol-5-yl)(4-(5-fluorobenzo[d]oxazol-2-yl)-6,7-dihydro-1H-imidazo[4,5-c]pyridin-5(4H)-yl)methanone] | 500 to 1000 nM | –
Cn1cc(-c2ncc(C(=O)N3CCc4[nH]cnc4C3c3nc4ccc(Br)cc4o3)s2)cn1 (centres unmarked) | – | 1000 to 5000 nM
Cc1cc(F)cc2nc([C@H]3c4nc[nH]c4CCN3C(=O)c3ocnc3C(F)F)oc12 [Example 658, (R)-(4-(difluoromethyl)oxazol-5-yl)(4-(5-fluoro-7-methylbenzo[d]oxazol-2-yl)-6,7-dihydro-1H-imidazo[4,5-c]pyridin-5(4H)-yl)methanone] | ≤ 500 nM | –
CC(C)(O)c1nc(CF)c(C(=O)N2CCc3[nH]cnc3[C@H]2c2nc3cc(F)ccc3o2)o1 [Example 211, (S)-(4-(5-fluorobenzo[d]oxazol-2-yl)-6,7-dihydro-1H-imidazo[4,5-c]pyridin-5(4H)-yl)(4-(fluoromethyl)-2-(2-hydroxypropan-2-yl)oxazol-5-yl)methanone] | 500 to 1000 nM | –
O=C(c1cnc(N2CCC(F)CC2)o1)N1CCc2[nH]cnc2C1c1nc2cc(F)ccc2o1 (centres unmarked) | – | ≥ 5000 nM
O=C(c1cnn(-c2ccccn2)c1)N1CCc2[nH]cnc2[C@H]1c1nc2cc(F)ccc2o1 [Example 879, (S)-(4-(5-fluorobenzo[d]oxazol-2-yl)-6,7-dihydro-1H-imidazo[4,5-c]pyridin-5(4H)-yl)(1-(pyridin-2-yl)-1H-pyrazol-4-yl)methanone] | 1000 to 5000 nM | –
O=C(c1cnn2cc(F)ccc12)N1CCc2[nH]cnc2C1c1nc2cc(F)ccc2o1 (centres unmarked) | – | ≥ 5000 nM
Cc1cccc2nc([C@@H]3c4nc[nH]c4CCN3C(=O)c3nnc(-c4ccn(C(F)F)n4)o3)oc12 [Example 860, (S)-(5-(1-(difluoromethyl)-1H-pyrazol-3-yl)-1,3,4-oxadiazol-2-yl)(4-(7-methylbenzo[d]oxazol-2-yl)-6,7-dihydro-1H-imidazo[4,5-c]pyridin-5(4H)-yl)methanone] | 500 to 1000 nM | –
COc1cccc2nc(C3c4nc[nH]c4CCN3C(=O)c3cc(C(C)(C)C)nn3C)oc12 (centres unmarked) | – | 1000 to 5000 nM
CNCc1ccc2c(C(=O)N3CCc4[nH]cnc4C3c3nc4cc(F)ccc4o3)cnn2c1 (centres unmarked) | – | ≥ 5000 nM
Cn1cc(-c2nnc(C(=O)N3CCc4[nH]cnc4[C@@H]3c3nc4cccc(C(F)(F)F)c4o3)o2)cn1 [Example 829, (R)-(5-(1-methyl-1H-pyrazol-4-yl)-1,3,4-oxadiazol-2-yl)(4-(7-(trifluoromethyl)benzo[d]oxazol-2-yl)-6,7-dihydro-1H-imidazo[4,5-c]pyridin-5(4H)-yl)methanone] | 1000 to 5000 nM | –
O=C(c1nnc(-c2cnn(S(=O)(=O)C3CC3)c2)o1)N1CCc2[nH]cnc2C1c1nc2cc(F)ccc2o1 (centres unmarked) | – | ≥ 5000 nM
Cc1nc(CN(C)C)oc1C(=O)N1CCc2[nH]cnc2C1c1nc2cc(F)ccc2o1 (centres unmarked) | – | 1000 to 5000 nM
CN1CCN(c2nnc(C(=O)N3CCc4[nH]cnc4C3c3nc4cc(F)ccc4o3)o2)CC1 (centres unmarked) | – | 1000 to 5000 nM
Cc1nc([C@@H](C)O)oc1C(=O)N1CCc2[nH]cnc2[C@@H]1c1nc2c(F)cccc2o1 [Example 209, ((R)-4-(4-fluorobenzo[d]oxazol-2-yl)-6,7-dihydro-1H-imidazo[4,5-c]pyridin-5(4H)-yl)(2-((R)-1-hydroxyethyl)-4-methyloxazol-5-yl)methanone] | ≥ 5000 nM | –
CN(C)CCCOc1ccc2c(C(=O)N3CCc4[nH]cnc4C3c3nc4cc(F)ccc4o3)cnn2c1 (centres unmarked) | – | ≥ 5000 nM
C[C@H](O)c1nc(C(F)F)c(C(=O)N2CCc3[nH]cnc3[C@@H]2c2nc3cccc(F)c3o2)o1 [Example 244, (4-(difluoromethyl)-2-((S)-1-hydroxyethyl)oxazol-5-yl)((R)-4-(7-fluorobenzo[d]oxazol-2-yl)-6,7-dihydro-1H-imidazo[4,5-c]pyridin-5(4H)-yl)methanone] | 500 to 1000 nM | –
O=C(c1ocnc1C(F)F)N1CCc2[nH]cnc2[C@H]1c1nc2cc(OC(F)(F)F)ccc2o1 [Example 354, (S)-(4-(difluoromethyl)oxazol-5-yl)(4-(5-(trifluoromethoxy)benzo[d]oxazol-2-yl)-6,7-dihydro-1H-imidazo[4,5-c]pyridin-5(4H)-yl)methanone] | ≤ 500 nM | –
CC(C)(O)c1nc(C(F)F)c(C(=O)N2CCc3[nH]cnc3[C@@H]2c2nc3c(Cl)cccc3o2)o1 [Example 436, [(4R)-4-(4-chloro-1,3-benzoxazol-2-yl)-1,4,6,7-tetrahydroimidazo[4,5-c]pyridin-5-yl]-[4-(difluoromethyl)-2-(1-hydroxy-1-methyl-ethyl)oxazol-5-yl]methanone] | 500 to 1000 nM | –
CN1C2CCC1CN(c1ccc3c(C(=O)N4CCc5[nH]cnc5C4c4nc5cc(F)ccc5o4)cnn3c1)C2 (single isomer, unassigned) | – | 1000 to 5000 nM
O=C(c1cccnc1)N1Cc2[nH]cnc2[C@H]1c1nc2ccccc2o1 [Example 927, (S)-(4-(benzo[d]oxazol-2-yl)-4,6-dihydropyrrolo[3,4-d]imidazol-5(1H)-yl)(pyridin-3-yl)methanone] | ≥ 5000 nM | –
CCn1cnnc1C(=O)N1CCc2[nH]cnc2[C@@H]1c1nc2cc(F)ccc2o1 [Example 886, (R)-(4-ethyl-4H-1,2,4-triazol-3-yl)(4-(5-fluorobenzo[d]oxazol-2-yl)-6,7-dihydro-1H-imidazo[4,5-c]pyridin-5(4H)-yl)methanone] | 1000 to 5000 nM | –
O=C(c1cnn2cc(N3CCC(O)CC3)ccc12)N1CCc2[nH]cnc2C1c1nc2c(F)cccc2o1 (centres unmarked) | – | 1000 to 5000 nM
